{
  "source": "paper PMC11148078",
  "about": "“Potent activity of polymyxin B is associated with long-lived super-stoichiometric accumulation mediated by weak-affinity binding to lipid A” (Nature Communications, 2024)",
  "key": {"E. coli WT": {"test_system": "E. coli WT", "format": "cell-based", "method": "(§1) Bacterial strains and plasmids are listed in SI Table S5. LB growth media was prepared according to manufacturer’s instructions and supplemented with 0.2% arabinose and carbenicillin (50 μg/mL) for the strains containing pBAD24-mcr1 plasmid. Cultures were started by inoculating 3 ml LB with 1–2 colonies from fresh overnight plates and grown at 37 °C until in log phase. Modified minimal inhibitory concentration (MIC) assays were performed in 96-well round bottom polystyrene plates (Corning) with a final volume of 100 µl in LB supplemented with tween-80 at 0.0005%. […] Polymyxin B sulfate (TCI Co. Ltd), polymyxin B nonapeptide (PMBN) (Sigma), and brevicidine (Genentech) were diluted directly in the assay plates. Bacteria were diluted in LB with tween-80 0.0005% and added to a final OD600 of 0.0005. Growth was measured via OD600 on a SpectraMax M5 plate reader after overnight static growth at 37 °C with humidity."}, "S. aureus WT": {"test_system": "S. aureus WT", "format": "cell-based", "method": "as §1"}, "[1]": {"test_system": "polymyxin B-resistant E. coli cells expressing mcr-1", "assay": "Whole cell SPR, E. coli expressing mcr-1", "format": "binding", "method": "(§2) Bacterial strains were grown in LB or LB with 0.2% arabinose and carbenicillin (50 μg/mL) to log phase (OD600 approximately 0.4–0.6), centrifuged for 10 min at 2500 × g (3500 rpm using a tabletop centrifuge), and re-suspended in PBS to a final OD600 of approximately 5. SPR on whole bacterial cells was performed and analyzed as described for OMVs on C1 chip, but with an additional carry-over wash prior to the capture. Regeneration of the chip after whole cell binding also required additional steps ([…] flow rate): (1) PBS supplemented with 32 mM MgCl2 for 120 s, (2) 2.5 M NaCl for 30 s, (3) 0.5% SDS (Desorb 1, Cytiva) for 60 s with carry over controls between."}, "[2]": {"test_system": "polymyxin B-resistant E. coli PmrA^G53E cells", "assay": "Whole cell SPR, E. coli PmrA^G53E", "format": "binding", "method": "as §2"}, "[3]": {"test_system": "mammalian extracellular vesicles (Expi293 cells)", "assay": "SPR binding to mammalian vesicles on LP chip", "details": "312.5 nM–40 µM, 25 °C", "from_the_text": "tween-80 (SI Fig. S4F). Note that higher concentrations were used to resolve the interaction above non-specific chip binding and the loss of polymyxin B to binding of plastics as discussed […]\nOMVs isolated from polymyxin-resistant bacteria (resistant-OMVs) were composed of modified lipid A (SI Table S1 and SI Fig. S6) and were immobilized via amine-coupled polymyxin B to the surface of a C1 chip (SI Fig. S4G). Given the results of our studies here, the binding of resistant-OMVs to the amine-coupled polymyxin B surface (stably, at least within the time frames used here) is not surprising. OMVs have several advantages over whole cells and purified LPS. They can be produced in large batches and frozen for multiple experiments. OMVs can be isolated from potentially any genetic background (such as the two polymyxin-resistant strains used here), from potentially any gram-negative bacterial strains, and allow interrogation of types of LPS which are not commercially available (ex. modified lipid A species). […]\nAnalysis and compartment temperature were set to 25°C. Mammalian vesicles from Expi293 cells were isolated as described19 by harvesting supernatants and concentrating vesicles via ultra-centrifugation (120,000 xg, 4°C, 1h), washing, suspending pellet in PBS, quantifying by Bradford protein assay, and diluting to […] in PBS. […]"}},
  "note": "Bridge positions count the residues as written; N and C are the ends. Square brackets hold non-standard residues; d marks the D form. Peptide text beside a SMILES is read from it. * marks the point of attachment. X1 = CC[C@H](C)CCCCC(=O)*; Dab = NCC[C@H](N)C(=O)O",
  "data": [
    {"smiles": "CC(C)C[C@@H]1NC(=O)[C@@H](Cc2ccccc2)NC(=O)[C@H](CCN)NC(=O)[C@@H](NC(=O)[C@H](CCN)NC(=O)[C@@H](N)[C@@H](C)O)CCNC(=O)[C@H]([C@@H](C)O)NC(=O)[C@H](CCN)NC(=O)[C@H](CCN)NC1=O", "note": "[PMBN] (H-T[Dab][Dab][Dab][dF]L[Dab][Dab]T; lactam 3-C)", "values": [
      {"measurement": "antibacterial activity", "setting": "E. coli WT", "result": "lacks the antibacterial activity of polymyxin B"},
      {"measurement": "MIC", "setting": "E. coli WT; LB + 0.0005% tween-80, OD600 0.0005, overnight static growth 37 °C, complete growth inhibition", "result": ">40", "unit": "µM"}
    ]},
    {"smiles": "CC[C@H](C)CCCCC(=O)N[C@@H](CCN)C(=O)N[C@H](C(=O)N[C@@H](CCN)C(=O)N[C@H]1CCNC(=O)[C@H]([C@@H](C)O)NC(=O)[C@H](CCN)NC(=O)[C@H](CCN)NC(=O)[C@H](CC(C)C)NC(=O)[C@@H](Cc2ccccc2)NC(=O)[C@H](CCN)NC1=O)[C@@H](C)O", "note": "[Polymyxin B] (X1-[Dab]T[Dab][Dab][Dab][dF]L[Dab][Dab]T; lactam 4-C (inferred); N-terminus assumed)", "values": [
      {"measurement": "MIC", "setting": "S. aureus WT; LB + 0.0005% tween-80, overnight 37 °C", "result": ">40", "unit": "µM"},
      {"measurement": "antibacterial activity", "setting": "S. aureus WT; highest tested concentration", "result": "no activity at the highest tested concentration"},
      {"measurement": "SPR binding profile", "setting": "[1]", "result": "same polymyxin B binding profiles were observed"},
      {"measurement": "SPR binding profile", "setting": "[2]", "result": "same polymyxin B binding profiles were observed"},
      {"measurement": "SPR binding to mammalian cell derived vesicles", "setting": "[3]", "result": "distinct from what we observe with OMVs and bacterial cells"}
    ]}
  ]
}
